Laboratory results reported in ChEMBL document CHEMBL1201862, “PubChem BioAssay data set” (2004).
Calls of active or inactive are those of the source.

Columns and labels:
H9c2 = assay: cells; format: functional, cell-based; conditions: Rattus norvegicus, H9c2, Myocardium;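 note: confirmatory concentration-response retest of ultra-high-throughput screening hits for modulation of myocardial damage; cell death induced by hydrogen peroxide oxidative stress; compound pretreatment for 60 min then peroxide exposure for 2 h; potency is for protecting the cells against peroxide damage rather than for killing them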
[1] = NIH3T3 cell viability loss – ATP luminescence, mouse fibroblasts, counter-screen, dose response (AID 2010); format: functional, cell-based;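 note: cells exposed to compound for about 90 hours before reading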
cells [2] = format: functional, cell-based
[3] = bead-based luminescence quenchers, dual-tagged ARNT – biochemical, AlphaScreen, cherry-pick, artefact control for ARNT-TACC3 interaction inhibitor project, dose response (AID 651705); format: functional;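 note: AlphaScreen bead proximity signal that flags compounds interfering with the detection technology; potency reflects signal decrease which marks the compound as an assay artifact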
[4] = Trypanosoma cruzi growth suppression in host cells – NIH3T3 host cells, beta-gal luminescence, confirmation (AID 2044); format: functional, cell-based;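 note: intracellular parasites grown in NIH/3T3 mouse fibroblasts as host cells; luminescent beta-galactosidase reporter signal from transgenic T. cruzi replicating inside host cells; inhibitors lower the luminescence signal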
cells [5] = format: functional, cell-based; remark: listed apart in the source
Genome polyprotein = Genome polyprotein (dengue virus type 2, UniProt P29990); assay: flavivirus cap methylation enzyme inhibition – biochemical, confirmation dose response, primary screen (AID 588689); format: functional
[6] = target: T1, Hepatocyte nuclear factor 4-alpha (Homo sapiens, UniProt P41235); format: functional, cell-based;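 note: biochemical luminescence-based dose-response counterscreen measuring inhibition of HNF4 dimerization, run alongside a screen for blockers of ABHD5–perilipin-5 interaction; split luciferase complementation of HNF4 fusion proteins in cell lysate measuring dimerization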
T1 sequence (P41235 whole entry): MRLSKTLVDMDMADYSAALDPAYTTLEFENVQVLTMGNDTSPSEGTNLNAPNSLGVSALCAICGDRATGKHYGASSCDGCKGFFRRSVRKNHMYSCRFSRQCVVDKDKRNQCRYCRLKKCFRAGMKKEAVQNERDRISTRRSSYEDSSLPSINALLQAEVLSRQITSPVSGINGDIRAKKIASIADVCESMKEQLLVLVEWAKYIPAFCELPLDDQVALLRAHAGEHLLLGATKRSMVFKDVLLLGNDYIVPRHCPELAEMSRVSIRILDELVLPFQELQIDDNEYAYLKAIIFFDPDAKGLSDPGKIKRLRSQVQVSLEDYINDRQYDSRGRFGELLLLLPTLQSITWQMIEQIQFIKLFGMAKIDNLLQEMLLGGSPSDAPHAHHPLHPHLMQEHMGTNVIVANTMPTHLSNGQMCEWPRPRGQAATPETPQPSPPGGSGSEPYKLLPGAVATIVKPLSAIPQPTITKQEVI

[7] = target: T2, DNA repair and recombination protein RAD54-like (Homo sapiens, UniProt Q92698); assay: RAD54 Holliday junction migration blockers – biochemical, fluorescence, cherry-picked samples, dose series, confirmation (AID 651657); format: functional
T2 sequence (Q92698 whole entry): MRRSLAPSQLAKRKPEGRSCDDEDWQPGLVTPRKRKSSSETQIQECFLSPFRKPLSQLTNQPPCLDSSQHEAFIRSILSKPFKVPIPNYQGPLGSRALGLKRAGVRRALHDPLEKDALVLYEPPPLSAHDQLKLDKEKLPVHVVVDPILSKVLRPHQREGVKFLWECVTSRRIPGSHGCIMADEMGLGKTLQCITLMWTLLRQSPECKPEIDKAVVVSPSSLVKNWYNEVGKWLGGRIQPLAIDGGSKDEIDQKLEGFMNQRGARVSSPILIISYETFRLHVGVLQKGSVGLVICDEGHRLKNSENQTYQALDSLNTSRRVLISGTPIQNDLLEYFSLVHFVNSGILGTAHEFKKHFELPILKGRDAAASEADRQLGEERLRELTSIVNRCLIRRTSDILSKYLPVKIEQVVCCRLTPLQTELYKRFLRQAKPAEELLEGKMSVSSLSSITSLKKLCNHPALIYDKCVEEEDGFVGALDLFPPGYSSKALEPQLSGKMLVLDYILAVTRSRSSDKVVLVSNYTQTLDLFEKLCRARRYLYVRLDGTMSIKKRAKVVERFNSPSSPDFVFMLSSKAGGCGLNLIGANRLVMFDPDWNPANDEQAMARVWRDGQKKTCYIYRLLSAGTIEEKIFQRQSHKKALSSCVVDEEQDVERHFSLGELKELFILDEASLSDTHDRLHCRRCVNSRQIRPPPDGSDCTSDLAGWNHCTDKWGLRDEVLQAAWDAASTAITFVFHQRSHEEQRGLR

[8] = target: T3, DNA repair protein RAD52 homolog (Homo sapiens, UniProt P43351); format: functional, biochemical
T3 sequence (P43351 whole entry): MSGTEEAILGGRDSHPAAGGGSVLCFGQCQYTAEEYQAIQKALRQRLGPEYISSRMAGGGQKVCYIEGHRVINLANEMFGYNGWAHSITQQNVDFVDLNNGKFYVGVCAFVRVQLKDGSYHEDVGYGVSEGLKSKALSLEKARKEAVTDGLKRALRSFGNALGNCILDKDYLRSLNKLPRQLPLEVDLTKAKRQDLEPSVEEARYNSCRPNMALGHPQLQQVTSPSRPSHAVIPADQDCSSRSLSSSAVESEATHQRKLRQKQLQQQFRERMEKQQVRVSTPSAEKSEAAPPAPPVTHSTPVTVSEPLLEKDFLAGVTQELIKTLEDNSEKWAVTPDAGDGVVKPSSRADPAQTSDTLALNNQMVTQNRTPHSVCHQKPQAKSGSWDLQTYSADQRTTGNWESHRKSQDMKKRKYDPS

[9] = target: T4, Ubiquitin-conjugating enzyme E2 N (Homo sapiens, UniProt P61088); format: functional;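 note: Dose-response confirmation in a TR-FRET assay detecting UBC13-driven polyubiquitin chain formation, inhibition measured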
T4 sequence (P61088 whole entry): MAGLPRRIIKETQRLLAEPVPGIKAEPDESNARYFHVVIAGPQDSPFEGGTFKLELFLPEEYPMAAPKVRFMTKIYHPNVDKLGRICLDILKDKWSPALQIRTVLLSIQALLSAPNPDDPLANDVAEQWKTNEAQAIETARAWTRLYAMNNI

[10] = target: T5, Tyrosine-protein phosphatase non-receptor type 5 (Homo sapiens, UniProt P54829); assay: PTPN5 enzyme inhibition – biochemical, fluorescence intensity, uHTS hits, confirmation (AID 602372); format: functional; conditions: read-out: IC50_Mean
T5 sequence (P54829 whole entry): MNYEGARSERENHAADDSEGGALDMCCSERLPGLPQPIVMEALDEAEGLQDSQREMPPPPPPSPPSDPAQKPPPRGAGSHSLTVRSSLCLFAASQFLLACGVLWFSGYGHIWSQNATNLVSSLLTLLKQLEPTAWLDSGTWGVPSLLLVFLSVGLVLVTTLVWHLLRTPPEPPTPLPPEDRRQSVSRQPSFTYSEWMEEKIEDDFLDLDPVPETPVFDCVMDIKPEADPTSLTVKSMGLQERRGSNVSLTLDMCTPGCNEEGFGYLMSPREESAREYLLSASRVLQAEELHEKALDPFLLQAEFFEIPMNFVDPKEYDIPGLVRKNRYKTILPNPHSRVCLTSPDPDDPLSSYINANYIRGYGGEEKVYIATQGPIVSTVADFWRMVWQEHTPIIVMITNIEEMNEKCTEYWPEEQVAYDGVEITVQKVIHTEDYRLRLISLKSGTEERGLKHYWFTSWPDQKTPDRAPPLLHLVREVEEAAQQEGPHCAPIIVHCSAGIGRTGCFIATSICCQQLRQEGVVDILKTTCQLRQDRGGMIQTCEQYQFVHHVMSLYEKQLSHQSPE

[11] = target: Dual specificity protein phosphatase 3 (Homo sapiens, UniProt P51452); assay: VHR phosphatase inhibition, dose response, selectivity assay for STEP inhibitor project, biochemical (AID 602374); format: functional; conditions: read-out: IC50_Mean
[12] = target: T6, Tyrosine-protein phosphatase non-receptor type 11 (Homo sapiens, UniProt Q06124); assay: PTPN11 enzyme inhibitors – biochemical, selectivity assay for STEP inhibitor project, dose response (AID 602367); format: functional; conditions: read-out: IC50_Mean
T6 sequence (Q06124 whole entry): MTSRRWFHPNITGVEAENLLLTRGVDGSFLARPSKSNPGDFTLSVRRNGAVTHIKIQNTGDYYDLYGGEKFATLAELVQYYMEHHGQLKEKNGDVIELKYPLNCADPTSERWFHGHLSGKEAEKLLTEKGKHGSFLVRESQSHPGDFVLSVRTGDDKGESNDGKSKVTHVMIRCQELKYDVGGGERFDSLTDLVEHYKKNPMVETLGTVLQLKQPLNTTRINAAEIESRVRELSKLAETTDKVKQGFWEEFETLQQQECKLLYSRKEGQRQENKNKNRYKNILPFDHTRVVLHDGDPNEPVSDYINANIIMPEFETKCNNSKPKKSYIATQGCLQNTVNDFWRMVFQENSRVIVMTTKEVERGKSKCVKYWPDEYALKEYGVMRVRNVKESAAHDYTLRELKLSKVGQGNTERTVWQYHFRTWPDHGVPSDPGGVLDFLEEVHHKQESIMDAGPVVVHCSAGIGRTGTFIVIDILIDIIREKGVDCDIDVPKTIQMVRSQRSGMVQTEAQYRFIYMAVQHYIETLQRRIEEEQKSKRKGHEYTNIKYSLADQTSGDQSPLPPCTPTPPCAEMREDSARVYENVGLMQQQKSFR

[13] = target: T7, Sentrin-specific protease 8 (Homo sapiens, UniProt Q96LD8); format: functional
T7 sequence (Q96LD8 whole entry): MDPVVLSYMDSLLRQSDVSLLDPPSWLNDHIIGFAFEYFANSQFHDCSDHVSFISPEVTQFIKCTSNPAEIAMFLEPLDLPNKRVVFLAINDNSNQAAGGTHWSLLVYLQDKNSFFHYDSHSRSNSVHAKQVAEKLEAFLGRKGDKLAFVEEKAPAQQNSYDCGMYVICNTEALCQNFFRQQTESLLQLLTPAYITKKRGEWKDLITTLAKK

[14] = target: T7, Sentrin-specific protease 8; format: functional; remark: listed apart in the source
[15] = target: Glucose-6-phosphate 1-dehydrogenase (Homo sapiens, UniProt P11413); assay: inhibition of Homo sapiens G6PD, dose series – biochemical, fluorescence, selectivity assay for P. falciparum G6PD inhibitor project, dose response (AID 504792); format: functional
Sequence of Glucose-6-phosphate 1-dehydrogenase (P11413 whole entry): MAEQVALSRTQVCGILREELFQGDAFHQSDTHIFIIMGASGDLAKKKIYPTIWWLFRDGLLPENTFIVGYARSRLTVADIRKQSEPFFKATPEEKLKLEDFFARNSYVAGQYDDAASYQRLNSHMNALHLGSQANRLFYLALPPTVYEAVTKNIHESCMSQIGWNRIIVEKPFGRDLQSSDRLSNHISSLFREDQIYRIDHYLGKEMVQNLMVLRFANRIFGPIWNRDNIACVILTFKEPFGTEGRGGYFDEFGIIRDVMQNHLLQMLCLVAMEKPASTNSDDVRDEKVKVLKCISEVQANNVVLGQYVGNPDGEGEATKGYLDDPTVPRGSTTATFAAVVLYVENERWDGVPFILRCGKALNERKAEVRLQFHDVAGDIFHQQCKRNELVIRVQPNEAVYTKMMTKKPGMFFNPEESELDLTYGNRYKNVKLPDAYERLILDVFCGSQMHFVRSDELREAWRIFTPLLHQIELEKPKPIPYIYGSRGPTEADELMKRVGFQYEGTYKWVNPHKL

Sequence of Dual specificity protein phosphatase 3 (P51452 whole entry): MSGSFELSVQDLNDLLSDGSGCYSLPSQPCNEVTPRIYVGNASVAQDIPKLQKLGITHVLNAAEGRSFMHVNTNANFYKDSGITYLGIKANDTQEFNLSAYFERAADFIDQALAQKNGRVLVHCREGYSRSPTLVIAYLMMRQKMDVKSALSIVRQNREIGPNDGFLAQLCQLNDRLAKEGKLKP
Sequence of Genome polyprotein (P29990 2492-3391 limits assumed): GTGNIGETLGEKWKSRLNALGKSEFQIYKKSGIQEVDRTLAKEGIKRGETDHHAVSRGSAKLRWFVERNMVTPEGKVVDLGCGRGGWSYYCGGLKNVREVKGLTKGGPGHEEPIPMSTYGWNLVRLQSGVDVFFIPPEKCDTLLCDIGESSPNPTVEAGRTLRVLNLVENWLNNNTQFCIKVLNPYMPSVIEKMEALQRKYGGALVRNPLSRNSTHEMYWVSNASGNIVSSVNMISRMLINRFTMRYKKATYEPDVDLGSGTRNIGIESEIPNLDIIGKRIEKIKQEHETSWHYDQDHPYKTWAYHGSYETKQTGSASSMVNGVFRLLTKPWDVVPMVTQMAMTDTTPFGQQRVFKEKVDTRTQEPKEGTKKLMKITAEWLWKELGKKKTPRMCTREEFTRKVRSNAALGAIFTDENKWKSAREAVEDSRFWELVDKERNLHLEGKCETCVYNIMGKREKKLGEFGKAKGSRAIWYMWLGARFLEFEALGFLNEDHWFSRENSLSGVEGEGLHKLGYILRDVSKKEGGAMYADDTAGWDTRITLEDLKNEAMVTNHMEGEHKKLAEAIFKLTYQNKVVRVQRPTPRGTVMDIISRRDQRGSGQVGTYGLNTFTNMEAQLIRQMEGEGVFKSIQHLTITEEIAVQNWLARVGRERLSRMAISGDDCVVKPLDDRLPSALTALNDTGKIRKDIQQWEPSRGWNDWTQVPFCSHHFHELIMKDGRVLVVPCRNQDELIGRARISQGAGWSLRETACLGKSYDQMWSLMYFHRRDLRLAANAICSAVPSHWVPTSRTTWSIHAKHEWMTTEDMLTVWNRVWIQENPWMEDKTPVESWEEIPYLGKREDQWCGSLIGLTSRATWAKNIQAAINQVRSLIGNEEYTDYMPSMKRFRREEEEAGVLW

SMILES: CC(C)[C@H](NC(=O)c1ccccc1Cl)C(=O)Nc1nc(-c2ccccn2)cs1
- IC50 (H9c2): 8.83 µM (active)
- EC50 [1]: 11.7 µM (active)
- EC50 (cells [2]): > 350 µM (not active)
- AC50 [3]: 73.8 µM (active)
- EC50 [4]: 2.23 µM (active)
- EC50 (cells [5]): 24 µM (active)

SMILES: O=C1NC(=S)NC(=O)C12C(c1ccccc1)NC(=S)NC2c1ccccc1 (centres undefined)
- IC50 (Genome polyprotein): 69.4 µM (active)
- IC50 [6]: 5.81 µM (active)

SMILES: CCN(CC)Cc1cc2[nH]c3c4ccc(Cl)cc4ncc3c2cc1OC
- AC50 [7]: 14.6 µM (active)
- AC50 [8]: 3.1 µM (active)
- IC50 [9]: > 20 µM (inactive)

SMILES: COc1ccc(C(C(=O)NC2CCCCC2)n2c(=O)c(-c3ccco3)nc3ccccc32)cc1 (centres undefined)
- IC50 [6]: 1.75 µM (active)

SMILES: CCOC(=O)c1c(NC(=O)c2ccc(S(=O)(=O)N3CCOCC3)cc2)sc2c1CCN(C(C)C)C2
- AC50 [7]: 8.89 µM (active)

SMILES: O=C(C1=C(O)C(=O)N(CCCO)C1c1ccc(Br)cc1)c1ccc(Br)cc1 (centres undefined)
- IC50 [10]: 36.2 µM (inactive)
- IC50 [11]: 73.4 µM (inactive)
- IC50 [12]: 58.9 µM (inactive)

SMILES: OCCN1CCN(C(=S)c2ccc(Cl)c(Cl)c2)CC1
- IC50 [13]: 18.4 µM (active)
- IC50 [14]: 10.8 µM (active)
- IC50 [10]: 8.95 µM (active)
- IC50 [11]: 0.339 µM (active)
- IC50 [12]: 1.99 µM (active)
- IC50 [15]: > 80 µM (inactive)
- AC50 [3]: 132 µM (active)

SMILES: CCCCN(CC)CCCN=C(S)Nc1ccc2nc(N3CCN(CC)CC3)cc(C)c2c1
- AC50 [7]: 25.7 µM (active)
